# Assay results reported in US5932568A, “6-methoxy-1H-benzotriazole-5-carboxamide derivatives and pharmaceutical compositions containing them” (priority 1994, dated 1999).
# Where a name gives a salt, the structure may show the parent alone.
# Experiments:
# [1] = test system: apomorphine-induced vomiting; assay: Inhibitory effect on apomorphine-induced vomiting; type: in vivo, dogs (Beagle); conditions: Canis lupus familiaris, po, 1 h, 2 h before s.c. apomorphine hydrochloride 0.3 mg/kg, emetic episodes 1 h; for inhibition in vivo at 1 mg/kg: 1.0 mg/kg oral; for inhibition in vivo at 0.1 mg/kg: 0.1 mg/kg oral
# Description: A group of 3-4 dogs (Beagle, 8-15 kg) was used for examining inhibitory effects of the test compounds on apomorphine-induced vomiting according to the method of Chen and Ensor [cf. J. Pharmacol. Exp. Ther., 98, 245-250 (1950)]. Test compounds, dissolved or suspended in a 0.5% tragacanth solution were orally administered two hours before the subcutaneous administration of apomorphine hydrochloride (0.3 mg/kg). Then, the emetic episodes were counted for one hour. The emetic episodes of the compound-treated group were compared with those of the corresponding control (non-dosed) group, and the percent inhibition was calculated.
# [2] = test system: gastric emptying; assay: Gastric emptying enhancing activity; type: in vivo, Male Wistar rats; conditions: 60 min before test meal, increase from control
# Description: The test was carried out according to the method of Scarpignato et al. [cf. Arch. Int. Pharmacodyn., 246, 286-294 (1980)]. Male Wistar rats, weighing 130-150 g, were fasted for 18 hours before experimentation, and 1.5 ml of a test meal (phenol red 0.05% in a 1.5% aqueous methylcellulose solution) was orally given. Fifteen minutes after administration of the meal the stomach was removed and the amount of phenol red remaining in the stomach was measured. The test compounds, dissolved or suspended in a 0.5% tragacanth solution, were orally administered 60 minutes before administration of the test meal. The rate of gastric emptying was calculated according to the amount of phenol red remaining in the stomach, and the activity of the test compounds was expressed in terms of increase in the emptying rate from the control.
# [3] = test system: exploratory activity; assay: Inhibitory effect on exploratory activity; type: in vivo, male mice (Std-ddy strain); conditions: Mus musculus; oral, 2 h before test; 3 min counting; Probit; read-out: ID50 (inhibition of exploratory activity)
# Text: A group of 5 male mice (Std-ddy strain, 20-25 g) was used. Two hours after oral administration of the test compounds in the form of 0.5% tragacanth solution or suspension, mice were placed individually in a test box (23×35×30 cm) on Animex activity meter (Farad Co.). Immediately thereafter, activity counting was started and lasted for three minutes. The mean counts of the compound-treated group were compared with those of the corresponding control (non-dosed) group, and the percent inhibition was calculated and the 50% inhibitory dose (ID50) was obtained according to the method of Probit.
# [4] = test system: gastrointestinal motility; assay: Gastrointestinal motility improving activity (overall statement); conditions: in vivo
# [5] = test system: gastric emptying delayed by cholecystokinin; assay: Effect on gastric emptying delayed by cholecystokinin; type: in vivo, Male Wistar rats; set-up: key to Effect on gastric emptying delayed by cholecystokinin: +: slightly to moderately improved; ++: markedly improved; ±: no improvement; conditions: for Effect on gastric emptying delayed by cholecystokinin: cholecystokinin 3 μg/kg s.c.; for Gastric emptying delayed by cholecystokinin (in words): compound 2: 30 or 100 mg/kg, 7b and Compound A: 10, 30 or 100 mg/kg
# Description: (§1) The test was carried out according to the method of Scarpignato et al. [c f. Arch. int. Pharmacodyn., 246, 286-294 (1980)]. Male Wistar rats, weighing 130-150 g, were fasted for 18 hours before experimentation, and 1.5 ml of a test meal (phenol red 0.05% in a 1.5% aqueous methylcellulose solution) was orally given. Fifteen minutes after administration of the meal the stomach was removed and the amount of phenol red remaining in the stomach was measured. The test compounds, 10, 30 or 100 mg/kg, each dissolved or suspended in a 0.5% tragacanth solution, were orally administrated 60 minutes before administration of the test meal. Gastric emptying was delayed by subcutaneous administration of cholesystokinin 3 μg/kg or morphine 3 mg/kg 5 minutes before the administration of phenol red. The number of animals used was 5 to 10.
# [6] = test system: gastrointestinal motility; assay: Effect on gastrointestinal motility in conscious dog; type: in vivo, beagle dogs; conditions: 3 and 10 mg/kg intragastric; fed state, conscious dogs
# Description: Four healthy beagle dogs per group of both sexes weighing 10 to 12 kg were anesthetized with an i.v. injection of pentobarbital sodium (Nembutal, 30 mg/kg b. wt.), and the abdominal cavity was opened under aseptic conditions. Extraluminal force transducers were sutured onto the seromuscular layer of the gastric antrum, 3 cm proximal to the pyloric ring, the duodenum, the jejunum, the […] terminal ileum in a manner to measure circular muscle contraction, following the method of Ito et al., [cf. Gastrointerol. Japan. 12, 275-283 (1977).] For intragastric (i.g.) administration of drugs, a Silastic tube (Fr. size 6.5) was inserted into the lumen of the gastric body, and the tube was fixed onto the adjacent serosa. The lead wires of these transducers and gastric tube were taken out of abdominal cavity and then brought out through a skin incision made between the scapulae. The outer ends of the lead wires were sutured onto the skin adjacent to the skin incision. After the operation, jacket protector was placed on the dog to protect the lead wires and the Silastic tube. The dogs were housed in individual experimental cages and given dog food at 10 a.m., and water was given freely. Test compounds at 3 and 10 mg/kg were suspended in 0.5% tragacanth solution and given i.g. through the indwelling Silastic tube.
# [7] = in vivo; conditions: mouse, oral, mice, 7 days observation
# [8] = test system: gastric emptying delayed by morphine; assay: Effect on gastric emptying delayed by morphine; type: in vivo, Male Wistar rats; set-up: key to Effect on gastric emptying delayed by morphine: +: slightly to moderately improved; ++: markedly improved; ±: no improvement; conditions: for Effect on gastric emptying delayed by morphine: morphine 3 mg/kg s.c.
# Description: as §1
compound,measurement,setting,value
"COc1cc2[nH]nnc2cc1C(=O)NC1CCCCN(CC2CC2)C1 (stereo not shown) [Compound 11, N-(1-cyclopropylmethyl-1H-hexahydroazepin-3-yl)-6-methoxy-1H-benzotriazole-5-carboxamide]",inhibition in vivo at 1 mg/kg,[1],92%
same,Increase in gastric emptying rate,[2]; 3 mg/kg oral,34%
"CCN1CCCC[C@@H](NC(=O)c2cc3nn[nH]c3cc2OC)C1 [Compound 7a, (R)-N-(1-ethyl-1H-hexahydroazepin-3-yl)-6-methoxy-1H-benzotriazole-5-carboxamide]",inhibition in vivo at 0.1 mg/kg,[1],73%
same,inhibition in vivo at 1 mg/kg,[1],100%
same,ED50,[3],> 100 mg/kg
same,Gastrointestinal motility improving activity (in words),[4],especially excellent gastrointestinal motility improving activity
"CCN1CCCC[C@H](NC(=O)c2cc3nnn(C)c3cc2OC)C1 [Compound 3, (S)-N-(1-ethyl-1H-hexahydroazepin-3-yl)-6-methoxy-1-methyl-1H-benzotriazole-5-carboxamide]",inhibition in vivo at 1 mg/kg,[1],36%
"CCN1CCCCC(NC(=O)c2cc3nn[nH]c3cc2OC)C1 (stereo not shown) [Compound 6, N-(1-ethyl-1H-hexahydroazepin-3-yl)-6-methoxy-1H-benzotriazole-5-carboxamide]",inhibition in vivo at 0.3 mg/kg,[1]; 0.3 mg/kg oral,71%
same,inhibition in vivo at 1 mg/kg,[1],100%
same,Increase in gastric emptying rate,[2]; 3 mg/kg oral,28%
same,ED50,[3],> 100 mg/kg
"COc1cc2c(cc1C(=O)N[C@@H]1CCCCN(CC3CC3)C1)nnn2C [Compound 13, (R)-N-(1-cyclopropylmethyl-1H-hexahydroazepin-3-yl)-6-methoxy-1-methyl-1H-benzotriazole-5-carboxamide]",inhibition in vivo at 1 mg/kg,[1],73%
"CCN1CCCCCC(NC(=O)c2cc3nnn(C)c3cc2OC)C1 (stereo not shown) [Compound 14, N-(1-ethyl-1H-heptahydroazocin-3-yl)-6-methoxy-1-methyl-1H-benzotriazole-5-carboxamide]",inhibition in vivo at 1 mg/kg,[1],100%
same,Increase in gastric emptying rate,[2]; 3 mg/kg oral,32%
"CCN1CCCCC(NC(=O)c2cc3nnn(CC)c3cc2OC)C1 (stereo not shown) [Compound 4, 1-ethyl-N-(1-ethyl-1H-hexahydroazepin-3-yl)-6-methoxy-1H-benzotriazole-5-carboxamide]",inhibition in vivo at 1 mg/kg,[1],89%
same,Increase in gastric emptying rate,[2]; 3 mg/kg oral,31%
same,ED50,[3],> 100 mg/kg
"CCN1CCCCC(NC(=O)c2cc3nnn(C)c3cc2OC)C1 (stereo not shown) [Compound 1, N-(1-ethyl-1H-hexahydroazepin-3-yl)-6-methoxy-1-methyl-1H-benzotriazole-5-carboxamide]",inhibition in vivo at 1 mg/kg,[1],77%
same,ED50,[3],> 100 mg/kg
"CCN1CCCC[C@@H](NC(=O)c2cc3nnn(CC)c3cc2OC)C1 [Compound 5, (R)-1-ethyl-N-(1-ethyl-1H-hexahydroazepin-3-yl)-6-methoxy-1H-benzotriazole-5-carboxamide]",inhibition in vivo at 1 mg/kg,[1],100%
same,Increase in gastric emptying rate,[2]; 3 mg/kg oral,35%
"CCN1CCCCCCC(NC(=O)c2cc3nn[nH]c3cc2OC)C1 (stereo not shown) [Compound 10, N-(1-ethyl-1H-octahydroazonin-3-yl)-6-methoxy-1H-benzotriazole-5-carboxamide]",inhibition in vivo at 1 mg/kg,[1],100%
same,Increase in gastric emptying rate,[2]; 3 mg/kg oral,46%
"CCN1CCCC[C@H](NC(=O)c2cc3nn[nH]c3cc2OC)C1 [Compound 8b, (S)-N-(1-ethyl-1H-hexahydroazepin-3-yl)-6-methoxy-1H-benzotriazole-5-carboxamide.3/2 fumarate]",inhibition in vivo at 1 mg/kg,[1],19%
"CCN1CCCC[C@@H](NC(=O)c2cc3nnn(C)c3cc2OC)C1 [Compound 2, (R)-N-(1-ethyl-1H-hexahydroazepin-3-yl)-6-methoxy-1-methyl-1H-benzotriazole-5-carboxamide]",inhibition in vivo at 0.1 mg/kg,[1],80%
same,inhibition in vivo at 1 mg/kg,[1],100%
same,Increase in gastric emptying rate,[2]; 3 mg/kg oral,41%
same,Effect on gastric emptying delayed by cholecystokinin,[5]; 30 mg/kg oral,+
same,Effect on gastric emptying delayed by cholecystokinin,[5]; 100 mg/kg oral,++
same,Gastric emptying delayed by cholecystokinin (in words),[5],significantly improved gastric emptying delayed by cholecystokinin
same,Interdigestive migrating like-contractions,[6],caused interdigestive migrating like-contractions in fed state in conscious dogs
same,ED50,[3],> 100 mg/kg
same,LD50 at 168 h,[7],688 mg/kg
same,Gastrointestinal motility improving activity (in words),[4],especially excellent gastrointestinal motility improving activity
"CCN1CCCCCCC(NC(=O)c2cc3nnn(C)c3cc2OC)C1 (stereo not shown) [Compound 15, N-(1-ethyl-1H-octahydroazonin-3-yl)-6-methoxy-1-methyl-1H-benzotriazole-5-carboxamide]",inhibition in vivo at 1 mg/kg,[1],71%
"CCN1CCCCCC(NC(=O)c2cc3nn[nH]c3cc2OC)C1 (stereo not shown) [Compound 9, N-(1-ethyl-1H-heptahydroazocin-3-yl)-6-methoxy-1H-benzotriazole-5-carboxamide]",inhibition in vivo at 1 mg/kg,[1],100%
"CCN(CC)CCNC(=O)c1cc(Cl)c(N)cc1OC.Cl.O [Compound A, 4-Amino-5-chloro-N-[2-(diethylamino)ethyl]-2-methoxybenzamide hydrochloride monohydrate, reference compound]",inhibition in vivo at 0.5 mg/kg,[1]; 0.5 mg/kg oral,56%
same,inhibition in vivo at 1 mg/kg,[1],86%
same,Increase in gastric emptying rate,[2]; 2 mg/kg oral,21%
same,Increase in gastric emptying rate,[2]; 5 mg/kg oral,26%
same,Increase in gastric emptying rate,[2]; 10 mg/kg oral,31%
same,Effect on gastric emptying delayed by cholecystokinin,[5]; 10 mg/kg oral,±
same,Effect on gastric emptying delayed by cholecystokinin,[5]; 30 mg/kg oral,±
same,Effect on gastric emptying delayed by cholecystokinin,[5]; 100 mg/kg oral,±
same,Gastric emptying delayed by cholecystokinin (in words),[5],did not show an improving activity against the delay in gastric emptying induced by cholecystokinin or morphine
same,Effect on gastric emptying delayed by morphine,[8]; 10 mg/kg oral,±
same,Effect on gastric emptying delayed by morphine,[8]; 30 mg/kg oral,±
same,Effect on gastric emptying delayed by morphine,[8]; 100 mg/kg oral,±
same,Gastric emptying delayed by morphine (in words),"[8]; 10, 30 or 100 mg/kg",did not show an improving activity against the delay in gastric emptying induced by cholecystokinin or morphine
same,Interdigestive migrating like-contractions,[6],did not cause interdigestive migrating contractions at all
same,ED50,[3],22.4 mg/kg
"COc1cc2[nH]nnc2cc1C(=O)N[C@@H]1CCCCN(CC2CC2)C1 [Compound 12, (R)-N-(1-cyclopropylmethyl-1H-hexahydroazepin-3-yl)-6-methoxy-1H-benzotriazole-5-carboxamide]",inhibition in vivo at 1 mg/kg,[1],92%
